Data on 1 compound can be found in patent publication US20200354348A1, “SEMISYNTHETIC AURONES AND METHODS OF USE THEREOF” (University of Kentucky Research Foundation, priority 2018, published 2020).

One series deals with NCI-H322M. Briefly: NCI60 screening. The following applies: Homo sapiens, Non-Small Cell Lung Cancer. The class given is cell-based.
In a further series the test system is OVCAR-4. Nature of the series: NCI60 screening. The class given is cell-based. The note with it: Homo sapiens, Ovarian Cancer.
For series [1], the system named is PC-3 cells. Nature of the series: Immunofluorescence imaging of tubulin networks. The following applies: α-tubulin immunofluorescence. The class given is cell-based. The protocol: Tubulin networks were examined by confocal immunofluorescence imaging. Briefly, PC3 cells were placed at a density of 80,000/mL to 24-well plates equipped with round microscope glass cover slides. After culturing at 37° C. for 24 hours, DMSO or compounds were added to the cells and incubated for additional 6 hours. Then the medium was removed and the cells were washed with pbs three times. Primary anti-α-tubulin antibody was added and incubated overnight at 4° C. After additional washing, secondary TRITC-conjugated anti-rabbit antibody was added for 40 min, followed by additional washing and staining with DAPI. Final washing was performed and the cover slides were inverted onto glass slides. Images (40×) were taken using a Nikon confocal microscope with excitation at 557 nm and emission at 576 nm.

The subject of a further series is HBP-ALL. Briefly: IC50 in leukemia cell lines. The class given is cell-based. The note with it: T-ALL.
For another series, the system named is A549(ATCC). Nature of the series: NCI60 screening. The note with it: Homo sapiens, Non-Small Cell Lung Cancer. The class given is cell-based.
Series [2] has as its system PC-3, LS174T, A549, MCF-7, Ovcar-8 and NCI/ADR-RES. Briefly: Inhibition of various cancer cell lines, five-day treatment (FIG. 2A). The class given is cell-based. The following applies: 120 h. The protocol:
The inhibitory effects of aurones 4a and 4r were determined on various cancer cell lines including prostate cancer PC-3, colorectal cancer LS174T, lung cancer A549, breast cancer MCF-7, and ovarian cancer Ovcar-8 and NCI/ADR-RES (Tables 1-3, FIG. 2A).
(§1) Cell Culture. LS174T (colon cancer cells), PC-3 (prostate cancer cells), MCF-7 (beast) and A549 (lung) were cultured in the medium recommended by American Type Culture Collection at 37° C. with 5% CO2 atmosphere in a water jacketed incubator. Ovcar-8 and NCI/ADR-RES are gifts from Dr. Markos Leggas. Alpha-tubulin antibodies, TRITC-conjugated anti-rabbit antibody.
Proliferation inhibition assay. Cancer cells were seeded into 24-well plates at a density of 20,000 cells per well in 1 mL of culture medium and cultured overnight at 37° C. Compounds and the vehicle control DMSO were added to the cells. […] Then the cells resuspended in pbs were counted by Vi-CELL XR 2.03 (Beckman Coulter, Inc. USA). The ratio R of the number of viable cells in the compound treatment group to the number of viable cells in DMSO treatment group was taken as relative growth, and the percentage growth inhibition was calculated as: (1−R)*100. For initial testing, compounds were added to the cells at a final concentration 10 μM. Active compounds at 10 μM would be tested at lower concentrations.

In the next series the test system is OVCAR-5. Briefly: NCI60 screening. The class given is cell-based. The following applies: Homo sapiens, Ovarian Cancer.
The test system of the next series is NCI-H522. Nature of the series: NCI60 screening. The following applies: Homo sapiens, Non-Small Cell Lung Cancer. The class given is cell-based.
For the next series, the system named is Myc-induced T-ALL. Briefly: Anti-leukemia activity in the zebrafish model. The class given is in vivo. The protocol: Rag2:Myc-GFP zebrafish at 21 days of age were treated with DMSO, Aurone 4a, or 4r in 1.5 mL fish system water in 12-well plates. Zebrafish were treated with compound for 2 days, removed from drug for 1 day, and treated for two more days in fresh compound. Animals were imaged at the start and end of treatment using a fluorescence-equipped dissecting microscope at 350 ms exposure. The GFP image was overlaid onto the bright-field image of each animal in Photoshop, and the percent change in leukemia burden was calculated by normalizing the GFP+ area to the total area of the animal in ImageJ.

Series [3] has as its system PC-3 cells. Nature of the series: Proliferation inhibition assay, PC-3. The class given is cell-based. The following applies: Homo sapiens, PC-3, Table 2. The protocol: as §1
(§2) Proliferation inhibition assay. Cancer cells were seeded into 24-well plates at a density of 20,000 cells per well in 1 mL of culture medium and cultured overnight at 37° C. Compounds and the vehicle control DMSO were added to the cells. After 6 days, medium was removed and 100 μL of trypsin was added. Then the cells resuspended in pbs were counted by Vi-CELL XR 2.03 (Beckman Coulter, Inc. USA). The ratio R of the number of viable cells in the compound treatment group to the number of viable cells in DMSO treatment group was taken as relative growth, and the percentage growth inhibition was calculated as: (1−R)*100. For initial testing, compounds were added to the cells at a final concentration 10 μM. Active compounds at 10 μM would be tested at lower concentrations.

A further series concerns PC-3 and LS174T cells. Nature of the series: Proliferation inhibition, Table 2. The following applies: Homo sapiens, read-out: inhibition at 300 nM concentrations. The class given is cell-based. The method, then:
as §2

For the next series, the system named is MOLT-4. Briefly: IC50 in leukemia cell lines. The class given is cell-based. The following applies: Homo sapiens; Molt-4, T-ALL.
Another series concerns EKVX. Nature of the series: NCI60 screening. The class given is cell-based. The note with it: Homo sapiens, Non-Small Cell Lung Cancer.
A further series relates to HEK193T cells. Nature of the series: In vivo microtubule assembly assay in cells. The class given is cell-based. The protocol:
In vivo microtubule assembly assay. The amount of insoluble polymerized microtubules and soluble tubulin dimers in cells after exposure to compounds were detected following the method by Blagosklommy et al. (Cancer research 55, 4623-4626 (1995). Cells were seeded in 6-well plate at 50% confluency and cultured overnight. DMSO or compounds were added and the cells were incubated for additional 6 hours. The medium was removed and cells were washed with PBS three times followed by addition of lysis buffer [20 mM Tris-HCl (pH 6.8), 1 mM MgCl2, 2 mM EGTA, 20 μg/mL aprotinin, 20 μg/mL leupeptin, 1 mM PMSF, 1 mM orthovanadate, and 0.5% NP40]. The lysates were centrifuged at 12000 g for 10 min to obtain supernatants and pellets, where were mixed with loading buffer and boiled. Then standard western blot analysis against β-tubulin was performed as described by our previous work. (ACS Chem Biol 8, 796-803, doi:10.1021/cb3005353 (2013)).

The test system of the next series is MALME-3M. Briefly: NCI60 screening. The class given is cell-based. The note with it: Homo sapiens, Melanoma.
In a further series the test system is RPMI58402. Nature of the series: IC50 in leukemia cell lines. The class given is cell-based. The following applies: RPMI58402, T-ALL.
A further series concerns Nalm-16. Nature of the series: IC50 in leukemia cell lines. The class given is cell-based. The following applies: NALM16; Nalm-16, B-ALL.

For orientation: GI50 means the concentration at which growth is held to half of that of the control. Higher therefore signals less potent growth inhibition. A word on the IC50: it is the concentration that inhibits the measured activity by half. The low end stands for greater potency in that assay, the high end for weaker potency in that assay.

Entries after “also recorded” stand apart in the source; their conditions may differ. Bounds are passed on as bounds.

On to `CCn1cc(/C=C2\Oc3cc(OCC#N)ccc3C2=O)c2cc(OC)ccc21` [Aurone 4a, (Z)-2-((2-((1-Ethyl-5-methoxy-1H-indol-3-yl)methylene)-3-oxo-2,3-dihydrobenzofuran-6-yl)oxy)acetonitrile], for which the GI50 was determined as 1430 nM in the series on NCI-H322M; 19000 nM in the series with OVCAR-4; 5100 nM in the series on A549(ATCC); 2520 nM with OVCAR-5; 3130 nM with NCI-H522; 2730 nM with EKVX. Further, the GI50 in the series with MALME-3M is above 100000 nM. The microtubule structures entry with PC-3 cells [1] is recorded as “inhibited microtubule structures”. Also, the IC50 with HBP-ALL was 94 nM; in [2], 50 to 300 nM; in the series on MOLT-4, 241 nM; in the series on RPMI58402 it was 301 nM; with Nalm-16, 272 nM. The “gross toxicity on zebrafish” value with Myc-induced T-ALL is “no gross toxicity was observed”. Further, the “inhibition of Myc-induced T-ALL” value in the series on Myc-induced T-ALL (5 days) is reported as “blocked the progress of T-ALL; also recorded: significant inhibition of Myc-induced T-ALL”. Besides, the “decrease in leukemia burden” value in the series with Myc-induced T-ALL (percent change over treatment, p=0.0011 vs DMSO) came to 45.58%. This compound had an inhibition at 0.1 µM with PC-3 cells [3] (100 nM) of 58 ± 11%. For the same compound, the inhibition at 0.3 µM in the series with PC-3 cells [3] (300 nM) is 93 ± 2.8%; in the series on PC-3 and LS174T cells, above 90%. Also, the inhibition at 1 µM in the series with PC-3 cells [3] (1 μM) came to 95 ± 2.5%. For the same compound, the “tubulin polymerization in cells” value in the series on HEK193T cells is on record as “decreased tubulin polymerization”.
